Where a name gives a salt, the structure may show the parent alone.
Legend:
muscarinic receptors = type: binding, rabbit (New Zealand White); conditions: at a concentration of 1.0 × 10^-5 M; rabbit lung homogenate, 0.1 nM [3H]QNB, 37° C., 60 min
[1] = system: gastrointestinal tract, biliary tract, ureter and uterus; conditions: cited from earlier work

Row | Structure (SMILES) | % inhibition of 3H[QNB] binding (muscarinic receptors) [%] | decrease spasm of the gastrointestinal tract, biliary tract, ureter and uterus ([1]; in vivo) | atropinic side effects ([1]; salivary and sweat glands, GI glands, the eye or the cardiovascular system)
1 | CCN(CC)CCSC(=O)c1ccc(C(C)(C)C)cc1 [4-t-butyl-benzoyl-thio-S-(2-diethylaminoethyl)-ester.HCl] | 21 | – | –
2 | CCN(CC)CCSC(=O)C(c1ccccc1)c1ccccc1 [Thiphenamil hydrochloride] | – | decrease spasm of the gastrointestinal tract, biliary tract, ureter and uterus | without producing characteristic atropinic side effects

— patent US4652649A, “Anti-spasmodic agents having a ring in the main chain” (United Pharmaceuticals, Inc., priority 1985, dated 1987)
